# Patent publication US10889543B2, “Fine-tune modulators of neuronal excitability for neuropsychiatric disorders” (THE BOARD OF REGENTS OF THE UNIVERSITY OF TEXAS SYSTEM, priority 2016, dated 2021)
# Residues, ends and D or L forms follow the SMILES beside them. *: point of attachment. Cbz = O=C(OCc1ccccc1)*; Boc = CC(C)(C)OC(=O)*
# Assays:
# [1] = molecular target: T1, Nav1.6 channel in the presence of FGF14 (Homo sapiens, UniProt Q9UQD0); assay: Whole-cell patch clamp of Na+ currents in HEK-Nav1.6 cells expressing FGF14-GFP; type: cell-based
# T1 construct: expressed in transfected cells; host or cells: HEK-Nav1.6 cells transiently transfected with FGF14-GFP
# Description: To determine the role of compounds of the invention in Nav1.6 channels alone and Nav1.6 channels in the presence of FGF14, 2×2 experimental groups using compound ZL0181, an exemplary embodiment, were designed. HEK-Nav1.6 cells were transiently transfected with GFP or […] and treated with either DMSO (0.15% final concentration, control group) or ZL0181 (20 μM, final concentration) 20-60 min prior to the experiments. […] Thus, ZL0181 inhibits peak current amplitude of Na1.6 current.
# The role of ZOL181 in Nav1.6 channel in the presence of FGF14 was then investigated. […] Furthermore, the role of ZL0181 to modulate the biophysical properties of Nav1.6 channel in the presence of FGF14 was investigated. In consistency with previous studies, voltage dependence of activation and steady-state inactivation kinetics changes in the cells expressing FGF14-GFP compared with control (FIG. 3C). […] Thus, ZL0181 works synergistically with FGF14 to regulate the peak current amplitude as well as the inactivation kinetics.
# Furthermore, using a range of doses from 1 μM to 100 μM a dose-response profile for ZL0181 in HEK293-Nav1.6 cells alone and HEK-Nav1.6 cells transfected with FGF14 was developed.
# HEK-Nav1.1, […] HEK-Nav1.6 were maintained in medium composed of equal volumes of DMEM and F-12 (Invitrogen) supplemented with 0.05% glucose, 0.5 mm pyruvate, 10% fetal bovine serum, 100 units/ml penicillin, 100 μg/ml streptomycin incubated at 37° C. with 5% CO2. For selection of Nav1.1 and Nav1.2, 500 μg/ml G418 (Invitrogen) was used, and for selection of Nav1.6, 80 μg/ml G418 (Invitrogen) was used. Cells were transfected according to manufacturer's instructions at 90-100% confluency using Lipofectamine 2000 (Invitrogen). See e.g., Shavkunov, A., et al. Assay and drug development technologies 10(2):148-160 (2012).
# Detailed methods for path-clamp experiments is known in the art. See e.g., Ali, S. R., et al., Journal of Biological Chemistry 291:11268 (2016).
# FGF14:Nav1.6 complex = molecular target: T2, FGF14:Nav1.6 complex (Homo sapiens, UniProt Q92915); assay: Split-luciferase complementation assay (LCA) in HEK293 cells expressing CLuc-FGF14 and CD4-Nav1.6-NLuc; type: cell-based; details: 50 μM, normalized to DMSO control
# T2 construct: FGF14 and the C-tail of Nav1.6 channels are fused to vectors expressing CLuc and NLuc luciferase reporter; expressed in transfected cells; host or cells: HEK293, transient transfection
# T2 sequence (Q92915 1-252 isoform Q92915-2): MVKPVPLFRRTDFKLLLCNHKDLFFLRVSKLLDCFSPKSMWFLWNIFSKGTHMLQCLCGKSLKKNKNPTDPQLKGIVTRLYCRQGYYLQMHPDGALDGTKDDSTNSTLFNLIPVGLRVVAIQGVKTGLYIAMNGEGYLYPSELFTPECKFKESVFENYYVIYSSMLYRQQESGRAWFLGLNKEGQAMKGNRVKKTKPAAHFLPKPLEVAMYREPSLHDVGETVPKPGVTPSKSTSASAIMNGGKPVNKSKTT
# Description: Detailed methods for LCA can be found is known in the art. See e.g., Shavkunov A. S., et al., Methods in Molecular Biology 1278:497-514 (2015). Statistical values were calculated as mean and standard error of the mean (mean±SEM), unless otherwise specified. The statistical significance (*p<0.05) of different groups was determined by Student's t-test, one-way ANOVA with post-hoc Bonferroni's method or Kruskal-Wallis one-way ANOVA on ranks with post-hoc Dunn's method using Sigma Stat (San Jose, Calif.) and Graph PrismR (La Jolla, Calif.) software. Dose-response modulation was determined by: y=START+(END−START)*x^n/(k^n+x^n) where k, Michaelis constant; n, cooperative sites; x, independent variable; y, dependable variable.
# To monitor the role of compounds of the invention in the FGF14:Nav1.6 complex, certain embodiments of the invention were screened by split-luciferase complementation assay (LCA) where FGF14 and the C-tail of Nav1.6 channels are fused to vectors expressing CLuc and NLuc luciferase reporter. Compounds of the invention, as exemplified by, compounds ZL0141, ZL0148, ZL0181, and ZL0182 (see FIG. 1) were tested at 50 μM in HEK293 cells expressing CLuc-FGF14 and CD4:Nav1.6-NLuc. […] None of the tested compounds interfered with the full-length luciferase enzyme (FIG. 2B, Chart C). Dose-response studies were then performed with compounds ZL0148, ZL0181, and ZL0182 against the FGF14:Nav1.6 complex.
# T1 sequence (Q9UQD0 whole entry): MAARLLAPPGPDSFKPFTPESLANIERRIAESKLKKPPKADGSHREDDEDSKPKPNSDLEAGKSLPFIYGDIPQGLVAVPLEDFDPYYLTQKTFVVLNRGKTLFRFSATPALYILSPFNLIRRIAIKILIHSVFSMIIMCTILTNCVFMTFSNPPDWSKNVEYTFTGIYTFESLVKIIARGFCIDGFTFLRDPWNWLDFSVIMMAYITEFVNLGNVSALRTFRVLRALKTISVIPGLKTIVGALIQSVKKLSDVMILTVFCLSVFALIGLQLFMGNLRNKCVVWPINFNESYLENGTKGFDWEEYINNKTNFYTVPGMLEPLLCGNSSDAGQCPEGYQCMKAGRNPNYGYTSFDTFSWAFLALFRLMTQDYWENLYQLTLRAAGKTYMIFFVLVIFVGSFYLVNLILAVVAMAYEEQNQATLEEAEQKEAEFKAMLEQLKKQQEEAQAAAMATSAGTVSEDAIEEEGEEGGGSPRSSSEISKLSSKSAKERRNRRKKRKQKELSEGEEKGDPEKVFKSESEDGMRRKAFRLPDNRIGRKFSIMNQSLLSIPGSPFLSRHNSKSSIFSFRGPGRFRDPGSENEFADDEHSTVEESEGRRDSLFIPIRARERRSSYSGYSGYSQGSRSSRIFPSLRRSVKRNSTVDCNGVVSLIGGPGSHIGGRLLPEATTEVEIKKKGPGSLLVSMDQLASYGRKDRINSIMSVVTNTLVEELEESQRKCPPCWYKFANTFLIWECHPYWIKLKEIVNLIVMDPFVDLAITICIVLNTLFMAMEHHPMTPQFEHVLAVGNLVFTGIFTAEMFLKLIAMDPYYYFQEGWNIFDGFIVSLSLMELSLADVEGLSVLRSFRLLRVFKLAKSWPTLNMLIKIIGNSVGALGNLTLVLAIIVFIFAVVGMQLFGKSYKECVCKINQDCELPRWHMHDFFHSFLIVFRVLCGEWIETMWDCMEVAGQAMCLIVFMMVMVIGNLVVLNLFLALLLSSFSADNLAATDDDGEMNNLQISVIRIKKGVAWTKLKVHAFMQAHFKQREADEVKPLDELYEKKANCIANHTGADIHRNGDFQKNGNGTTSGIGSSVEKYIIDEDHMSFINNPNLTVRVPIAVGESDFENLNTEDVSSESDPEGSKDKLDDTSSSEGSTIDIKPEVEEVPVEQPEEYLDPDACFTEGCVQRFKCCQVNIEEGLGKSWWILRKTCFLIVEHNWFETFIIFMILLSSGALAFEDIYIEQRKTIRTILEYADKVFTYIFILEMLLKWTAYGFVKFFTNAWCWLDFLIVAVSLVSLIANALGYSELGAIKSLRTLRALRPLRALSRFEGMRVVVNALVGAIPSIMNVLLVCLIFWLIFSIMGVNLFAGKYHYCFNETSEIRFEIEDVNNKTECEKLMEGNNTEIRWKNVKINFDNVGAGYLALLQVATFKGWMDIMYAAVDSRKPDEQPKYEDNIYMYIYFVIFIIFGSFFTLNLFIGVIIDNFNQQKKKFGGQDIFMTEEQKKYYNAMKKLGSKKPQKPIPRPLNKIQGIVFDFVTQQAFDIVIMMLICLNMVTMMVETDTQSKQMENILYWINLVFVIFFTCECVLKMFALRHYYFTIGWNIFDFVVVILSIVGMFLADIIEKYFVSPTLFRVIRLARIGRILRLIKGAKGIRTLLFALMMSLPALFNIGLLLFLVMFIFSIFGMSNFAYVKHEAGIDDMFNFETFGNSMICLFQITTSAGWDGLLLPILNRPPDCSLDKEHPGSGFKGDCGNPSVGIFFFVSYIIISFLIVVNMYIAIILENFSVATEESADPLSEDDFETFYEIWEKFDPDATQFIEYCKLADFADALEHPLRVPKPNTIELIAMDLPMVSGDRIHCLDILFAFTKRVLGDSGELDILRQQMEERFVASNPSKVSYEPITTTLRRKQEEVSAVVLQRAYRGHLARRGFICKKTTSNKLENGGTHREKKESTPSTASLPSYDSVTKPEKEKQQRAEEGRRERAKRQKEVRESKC
compound,measurement,setting,value
"CC(C)C[C@H](NC(=O)[C@H](Cc1ccccc1)NC(=O)OCc1ccccc1)C(=O)N1CCC[C@H]1C(=O)N[C@@H](CCCCNC(=O)OC(C)(C)C)C(N)=O [ZL0181, Z-Phe-Leu-Pro-Lys(Boc)-NH2] (Cbz-FLPK(Boc)-NH2)",steady-state inactivation (depolarizing shift induced by FGF14-GFP),"[1]; FGF14-GFP-expressing HEK-Nav1.6 cells, 20 μM",rescued the depolarizing shift of the steady-state inactivation induced by FGF14-GFP expression back to control levels
same,Na+ current peak amplitude (peak current density),"[1]; FGF14-GFP-expressing HEK-Nav1.6 cells, 20 μM, n=19, DMSO control −18.1±3.8",−7.4±4.4 pA/pF
same,IC50,"[1]; HEK-Nav1.6 cells transfected with FGF14, doses 1 μM to 100 μM, read-out: IC50, inhibition of Nav1.6 encoded currents in presence of FGF14",11.5 ± 1.3 µM
same,luminescence response compared to control (DMSO),FGF14:Nav1.6 complex,75±6%
